The values below come from US8642539B2, “Method for treating a disease characterized by reduced appetite” (Takeda Pharmaceutical Company Limited, priority 2007, dated 2014).

Entries after “also recorded” stand apart in the source; their conditions may differ.

Assay [1] has as its system GPR100−/− mice. Kind of assay: Insl5 administered intraperitoneally, feeding behaviour in GPR100−/− mice. It counts as in vivo. The note with it: intraperitoneal, FIG. 9 lower panel. As to the method:
(§1) To test the hypothesis that Insl5 is an orexigenic hormone directly, it was administered intraperitoneally to wt and GPR100−/− mice. […] Moreover, this effect is mediated through GPR100.

The target of assay [2] is GPR100 (Homo sapiens, UniProt Q8TDU9). To be noted: mature Insl5; cited from earlier work.
Assay [3] relates to wt mice. Briefly: Insl5 administered intraperitoneally, food intake in wt mice. It counts as in vivo. The note with it: wt mice (129/SvEv), intraperitoneal, dose dependent; FIG. 9 upper panel. How it is done:
as §1

Sequence of GPR100 (Q8TDU9 whole entry, species assumed): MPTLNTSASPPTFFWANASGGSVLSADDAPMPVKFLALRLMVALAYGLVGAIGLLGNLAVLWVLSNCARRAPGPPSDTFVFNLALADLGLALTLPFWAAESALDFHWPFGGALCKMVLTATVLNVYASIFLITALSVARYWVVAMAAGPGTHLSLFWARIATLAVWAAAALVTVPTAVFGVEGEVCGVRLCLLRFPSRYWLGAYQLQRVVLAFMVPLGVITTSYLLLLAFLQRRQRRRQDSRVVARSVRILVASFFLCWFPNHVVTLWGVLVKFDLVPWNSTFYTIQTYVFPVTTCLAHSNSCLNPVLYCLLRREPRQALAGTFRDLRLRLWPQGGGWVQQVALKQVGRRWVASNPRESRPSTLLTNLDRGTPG

On to “insulin-like peptide 5 [Insl5, 45 amino acid residue mature peptide comprising an A chain and a B chain connected by disulfide bonds; endogenous ligand of GPR100]”, for which the feeding behaviour entry in assay [1] is “no effect on feeding behaviour”. In addition, the “affinity in displacing relaxin-3 peptide from GPR100” value in assay [2] is reported as “high affinity, in the nanomolar range”. Besides, the food intake entry in assay [3] is on record as “increase of food intake; also recorded: significant increase in food intake”.
